According to patent publication US20210392892A1, “COMPOSITIONS COMPRISING PYRIDINE CARBOXYLATE HERBICIDES AND ACETYL COA CARBOXYLASE (ACCASE) INHIBITOR HERBICIDES” (Corteva Agriscience LLC, priority 2018, published 2021):

Legend:
Experiment in all cases: Greenhouse postemergence herbicidal effect (visual injury)
Assay type in all cases: in vivo
[1] = tested on: LOLMG, Lolium multiflorum subsp. gaudini (annual ryegrass)
Source text: (§1) Seeds of the desired test plant species were planted in a 90:10% v/v (volume/volume) mixture of PRO-MIX® BX (Premier Tech Horticulture, Quakertown, Pa., USA) and PROFILE® GREENS GRADE™ (Profile Products LLC, Buffalo Grove, Ill., USA) planting mixture, which typically has a pH of 5.2 to 6.2 and an organic matter content of at least 50 percent, in plastic pots with a surface area of 103.2 square centimeters (cm^2). In some aspects, to help ensure good germination and healthy plants, a fungicide treatment and/or other chemical or physical treatment was applied. The plants were grown for 7-36 days (d) in a greenhouse with an approximate 14-hour (h) photoperiod which was maintained at about 23° C. during the day and 22° C. during the night. Nutrients and water were added on a regular basis and supplemental lighting was provided with overhead metal halide 1000-Watt lamps as necessary. The plants were employed for testing when they reached the second or third true leaf stage.
(§2) Emulsifiable concentrates of each of each pyridine carboxylate herbicide (Compound A or Compound B) were prepared at 100 grams acid equivalent per liter (g ae/L). The emulsifiable concentrates also included a safener, cloquintocet-mexyl, at 120 grams active ingredient per liter (g ai/L), unless otherwise noted below. An aliquot of each emulsifiable concentrate was placed in a 25 mL glass vial and diluted with an aqueous mixture of 1.25% (v/v) ACTIROB® B esterified rapeseed oil (Bayer Crop Science, Research Triangle Park, N.C., USA) or MSO® Concentrate with LECI-TECH® methylated soybean oil (Loveland Products, Loveland, Colo., USA) to obtain concentrated stock solutions at the highest application rate for each herbicide, based upon a 12 milliliter (mL) application volume at a rate of 187 liters per hectare (L/ha). The concentrated stock solutions were further diluted with an aqueous mixture of 1.25% v/v ACTIROB® B or MSO® Concentrate with LECI-TECH® to obtain stock solutions at reduced application rates for each herbicide. Spray solutions of the herbicide combinations (Compound A or Compound B plus ACCase inhibitor herbicide) were prepared by adding weighed amounts or aliquots of the ACCase inhibitor herbicide to the stock solutions of Compound A or Compound B to form 12-mL spray solutions in two-way combinations.
(§3) The spray solutions were applied to the plant material with an overhead Mandel track sprayer equipped with 8002E nozzles calibrated to deliver 187 L/ha over an application area of 0.503 square meters (m^2) at a spray height of 18 inches (43 centimeters (cm)) above the average plant canopy. Control plants were sprayed in the same manner with the solvent blank. All pyridine carboxylate herbicide (component a) application rates are given as “g ae/ha” and all ACCase inhibitor herbicide (component b) application rates are given as “g ai/ha.”
(§4) The treated plants and control plants were placed in a greenhouse as described above and watered by sub-irrigation to prevent wash-off of the test compounds. After 20-22 d, the condition of the test plants as compared with that of the control plants was determined visually and scored on a scale of 0 to 100 percent where 0 corresponds to no injury and 100 corresponds to complete kill.

[2] = tested on: SETFA, Setaria faberi (giant foxtail)
Source text: as §1, §2, §3, §4

[3] = tested on: SORVU, Sorghum vulgare (grain sorghum)
Source text: as §1, §2, §3, §4

[4] = tested on: LEFCH, Leptochloa chinensis (Chinese sprangletop)
Source text: as §1, §2, §3, §4

[5] = tested on: ORYSA, Oryza sativa (common rice)
Source text: as §1, §2, §3, §4

ZEAMX, Zea mays (maize) = tested on: ZEAMX, Zea mays (maize)
Source text: as §1, §2, §3, §4

[6] = tested on: ABUTH, Abutilon theophrasti (velvetleaf)
Source text: as §1, §2, §3, §4

[7] = tested on: ALOMY, Alopecurus myosuroides (blackgrass)
Source text: as §1, §2, §3, §4

[8] = tested on: AVEFA, Avena fatua (wild oat)
Source text: as §1, §2, §3, §4

[9] = tested on: BRSNW, Brassica napus (winter rape)
Source text: as §1, §2, §3, §4

[10] = tested on: CIRAR, Cirsium arvense (Canadian thistle)
Source text: as §1, §2, §3, §4

[11] = tested on: CYPES, Cyperus esculentus (nutsedge)
Source text: as §1, §2, §3, §4

[12] = tested on: DIGSA, Digitaria sanguinalis (large crabgrass)
Source text: as §1, §2, §3, §4

[13] = tested on: ECHCG, Echinochloa crus-galli (barnyardgrass)
Source text: as §1, §2, §3, §4

[14] = tested on: GLXMA, Glycine max (soybean)
Source text: as §1, §2, §3, §4

[15] = tested on: HELAN, Helianthus annuus (common sunflower)
Source text: as §1, §2, §3, §4

[16] = tested on: IPOHE, Ipomoea hederacea (ivyleaf morningglory)
Source text: as §1, §2, §3, §4

[17] = tested on: KCHSC, Kochia scoparia (kochia)
Source text: as §1, §2, §3, §4

[18] = tested on: LOLMU, Lolium multiflorum (Italian ryegrass)
Source text: as §1, §2, §3, §4

[19] = tested on: POLCO, Polygonum convolvulus (wild buckwheat)
Source text: as §1, §2, §3, §4

[20] = tested on: RUMOB, Rumex obtusifolius (broad-leaf dock)
Source text: as §1, §2, §3, §4

[21] = tested on: STEME, Stellaria media (chickweed)
Source text: as §1, §2, §3, §4

[22] = tested on: VIOTR, Viola tricolor (wild pansy)
Source text: as §1, §2, §3, §4

[23] = tested on: BRSNN, Brassica napus (spring rape); conditions: 70 g ai/ha
Source text: as §1, §2, §3, §4

Molecule: CCON=C(CC)C1=C(O)CC(c2c(C)cc(C)cc2C)CC1=O (stereo not shown) [Tralkoxydim, 2-[1-(ethoxyimino)propyl]-3-hydroxy-5-mesitylcyclohex-2-enone]
- % visual injury, Obs ([1]; 100 g ai/ha): 70%
- % visual injury, Obs ([2]; 100 g ai/ha): 40%
- % visual injury, Obs ([3]; 100 g ai/ha): 65%

Molecule: COC(=O)[C@@H](C)Oc1ccc(Oc2ncc(C(F)(F)F)cc2Cl)cc1 [Haloxyfop-R-methyl, reference compound]
- % visual injury, Obs ([4]; LEFCH, Compound A 0 g/ha, Haloxyfop-R-methyl 70 g/ha): 100%
- % visual injury, Obs ([2]; SETFA, Compound A 0 g/ha, Haloxyfop-R-methyl 70 g/ha): 100%

Molecule: CCc1cc(C)cc(CC)c1-c1c(OC(=O)C(C)(C)C)n2n(c1=O)CCOCC2 [Pinoxaden]
- % visual injury, Obs ([1]; 30 g ai/ha): 94%
- % visual injury, Obs ([5]; 30 g ai/ha): 99%
- % visual injury, Obs ([2]; 30 g ai/ha): 10%
- % visual injury, Obs (ZEAMX, Zea mays (maize); 30 g ai/ha): 5%

Molecule: C#CCOC(=O)[C@@H](C)Oc1ccc(Oc2ncc(Cl)cc2F)cc1
- % visual injury, Obs ([1]; 30 g ai/ha): 15%
- % visual injury, Obs ([5]; 30 g ai/ha): 83%
- % visual injury, Obs ([2]; 30 g ai/ha): 98%
- % visual injury, Obs (ZEAMX, Zea mays (maize); 30 g ai/ha): 90%

Molecule: Fluazifop [reference compound]
- % visual injury, Obs ([6]; ABUTH, Compound A 0 g/ha, Fluazifop 105 g/ha): 0%
- % visual injury, Obs ([7]; 105 g ai/ha): 93%
- % visual injury, Obs ([7]; ALOMY, Compound A 0 g/ha, Fluazifop 105 g/ha): 85%
- % visual injury, Obs ([8]; 105 g ai/ha): 93%
- % visual injury, Obs ([8]; AVEFA, Compound A 0 g/ha, Fluazifop 105 g/ha): 95%
- % visual injury, Obs ([9]; BRSNW, Compound A 0 g/ha, Fluazifop 105 g/ha): 0%
- % visual injury, Obs ([10]; CIRAR, Compound A 0 g/ha, Fluazifop 105 g/ha): 5%
- % visual injury, Obs ([11]; 105 g ai/ha): 5%
- % visual injury, Obs ([11]; CYPES, Compound A 0 g/ha, Fluazifop 105 g/ha): 0%
- % visual injury, Obs ([12]; 105 g ai/ha): 95%
- % visual injury, Obs ([12]; DIGSA, Compound A 0 g/ha, Fluazifop 105 g/ha): 95%
- % visual injury, Obs ([13]; 105 g ai/ha): 95%
- % visual injury, Obs ([13]; ECHCG, Compound A 0 g/ha, Fluazifop 105 g/ha): 95%
- % visual injury, Obs ([14]; GLXMA, Compound A 0 g/ha, Fluazifop 105 g/ha): 28%
- % visual injury, Obs ([15]; HELAN, Compound A 0 g/ha, Fluazifop 105 g/ha): 0%
- % visual injury, Obs ([16]; IPOHE, Compound A 0 g/ha, Fluazifop 105 g/ha): 0%
- % visual injury, Obs ([17]; KCHSC, Compound A 0 g/ha, Fluazifop 105 g/ha): 0%
- % visual injury, Obs ([4]; 105 g ai/ha): 100%
- % visual injury, Obs ([4]; LEFCH, Compound A 0 g/ha, Fluazifop 105 g/ha): 98%
- % visual injury, Obs ([18]; 105 g ai/ha): 80%
- % visual injury, Obs ([18]; LOLMU, Compound A 0 g/ha, Fluazifop 105 g/ha): 88%
- % visual injury, Obs ([19]; POLCO, Compound A 0 g/ha, Fluazifop 105 g/ha): 0%
- % visual injury, Obs ([20]; RUMOB, Compound A 0 g/ha, Fluazifop 105 g/ha): 0%
- % visual injury, Obs ([2]; 105 g ai/ha): 90%
- % visual injury, Obs ([2]; SETFA, Compound A 0 g/ha, Fluazifop 105 g/ha): 85%
- % visual injury, Obs ([3]; SORVU, Compound A 0 g/ha, Fluazifop 105 g/ha): 100%
- % visual injury, Obs ([21]; STEME, Compound A 0 g/ha, Fluazifop 105 g/ha): 0%
- % visual injury, Obs ([22]; VIOTR, Compound A 0 g/ha, Fluazifop 105 g/ha): 3%

Molecule: Fenoxaprop
- % visual injury, Obs ([7]; 46 g ai/ha): 0%
- % visual injury, Obs ([8]; 46 g ai/ha): 68%
- % visual injury, Obs ([11]; 46 g ai/ha): 0%
- % visual injury, Obs ([12]; 46 g ai/ha): 96%
- % visual injury, Obs ([13]; 46 g ai/ha): 100%
- % visual injury, Obs ([1]; 46 g ai/ha): 0%
- % visual injury, Obs ([18]; 46 g ai/ha): 5%
- % visual injury, Obs ([5]; 46 g ai/ha): 35%
- % visual injury, Obs ([2]; 46 g ai/ha): 100%
- % visual injury, Obs (ZEAMX, Zea mays (maize); 46 g ai/ha): 100%

Molecule: C#CCOC(=O)c1nc(-c2ccc3cc[nH]c3c2F)c(F)c(N)c1Cl [Compound B, propargyl 4-amino-3-chloro-5-fluoro-6-(7-fluoro-1H-indol-6-yl)pyridine-2-carboxylate]
- % visual injury, Obs ([3]; 7.5 g ae/ha, with cloquintocet-mexyl): 10%
- % visual injury, Obs ([3]; 10 g ae/ha, with cloquintocet-mexyl): 20%

Molecule: CCOC(=O)[C@@H](C)Oc1ccc(Oc2cnc3cc(Cl)ccc3n2)cc1 [Quizalofop-P-ethyl, reference compound]
- % visual injury, Obs ([4]; LEFCH, Compound A 0 g/ha, Quizalofop-P-ethyl 75 g/ha): 100%
- % visual injury, Obs ([2]; SETFA, Compound A 0 g/ha, Quizalofop-P-ethyl 75 g/ha): 100%

Molecule: CCSC(C)CC1CC(=O)C(C(CC)=NOC/C=C/Cl)=C(O)C1 (stereo not shown) [Clethodim, reference compound]
- % visual injury, Obs ([6]; 70 g ai/ha): 0%
- % visual injury, Obs ([9]; 70 g ai/ha): 0%
- % visual injury, Obs ([10]; 70 g ai/ha): 0%
- % visual injury, Obs ([14]; 70 g ai/ha): 5%
- % visual injury, Obs ([15]; 70 g ai/ha): 0%
- % visual injury, Obs ([16]; 70 g ai/ha): 0%
- % visual injury, Obs ([17]; 70 g ai/ha): 0%
- % visual injury, Obs ([4]; 70 g ai/ha): 95%
- % visual injury, Obs ([19]; 70 g ai/ha): 0%
- % visual injury, Obs ([20]; 70 g ai/ha): 0%
- % visual injury, Obs ([2]; 70 g ai/ha): 90%
- % visual injury, Obs ([3]; 70 g ai/ha): 98%
- % visual injury, Obs ([21]; 70 g ai/ha): 0%
- % visual injury, Obs ([22]; 70 g ai/ha): 0%

Molecule: CCCC(=NOCC)C1=C(O)CC(CC(C)SCC)CC1=O (stereo not shown) [Sethoxydim, reference compound]
- % visual injury, Obs [23]: 0%
- % visual injury, Obs ([17]; 70 g ai/ha): 0%
- % visual injury, Obs ([20]; 70 g ai/ha): 0%
- % visual injury, Obs ([21]; 70 g ai/ha): 0%
